Source: ChEMBL document CHEMBL2074294, “Differential effects of microsomal enzyme-inducing chemicals on the hepatic expression of rat organic anion transporters, OATP1 and OATP2” (Hepatology, 2001)

Biological target: T1, Solute carrier organic anion transporter family member 1A4 (Rattus norvegicus, UniProt O35913)
T1 sequence (O35913 whole entry): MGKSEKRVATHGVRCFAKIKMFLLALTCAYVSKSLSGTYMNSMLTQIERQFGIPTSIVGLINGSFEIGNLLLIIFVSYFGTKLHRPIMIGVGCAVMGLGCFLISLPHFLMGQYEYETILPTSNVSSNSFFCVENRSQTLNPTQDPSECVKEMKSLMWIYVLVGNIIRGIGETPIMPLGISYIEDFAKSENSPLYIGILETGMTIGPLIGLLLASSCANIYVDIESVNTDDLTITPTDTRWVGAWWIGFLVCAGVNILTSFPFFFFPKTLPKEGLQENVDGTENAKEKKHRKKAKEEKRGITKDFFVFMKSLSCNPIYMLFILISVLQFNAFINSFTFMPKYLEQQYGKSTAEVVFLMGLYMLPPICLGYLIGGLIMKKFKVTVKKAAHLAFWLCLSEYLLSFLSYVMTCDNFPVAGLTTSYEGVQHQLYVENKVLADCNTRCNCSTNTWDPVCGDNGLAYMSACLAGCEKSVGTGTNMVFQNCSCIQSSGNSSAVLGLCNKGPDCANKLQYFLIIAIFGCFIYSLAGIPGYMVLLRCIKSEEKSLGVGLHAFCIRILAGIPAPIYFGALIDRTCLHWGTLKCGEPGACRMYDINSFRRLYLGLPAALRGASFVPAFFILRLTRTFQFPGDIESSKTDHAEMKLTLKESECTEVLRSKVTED
Assay: TP_TRANSPORTER: Western blot
Type: functional

Q: With `Cc1ccc2cc3c(ccc4ccccc43)c3c2c1CC3` [3-METHYLCHOLANTHRENE] as the compound, how does the Activity read?
A: inducer [Decrease]
